According to the NIST ThermoML archive (doi:10.1016/j.tca.2018.10.003):
Numbers after ± are expanded uncertainties.

Conditions: Crystal; DSC

## O=C(OOC(=O)c1ccccc1)c1ccccc1 [benzoyl peroxide]
  Triple point temperature: 377.75 ± 4.1 K
